Source: ChEMBL document CHEMBL1144417, “Conformation mining: an algorithm for finding biologically relevant conformations” (J Med Chem, 2005)

How the values were obtained:
[1] = target: Cyclin-dependent kinase 2 (Homo sapiens, UniProt P24941); experiment: Inhibition of Cyclin-dependent kinase 2
[2] = Inhibitory activity against thrombin

Row | SMILES | IC50 [1] | Ki [2]
1 | O=C1NC2C=CC=CC2/C1=C/Nc1ccc(S(=O)(=O)Nc2nccs2)cc1 (stereo not given) | 1000 nM | 
2 | Cc1cc(NS(=O)(=O)c2ccccc2)cc(OCCNc2ccncc2)c1 |  | 23 nM
3 | N=C(N)NCCC[C@H](NC(=O)[C@@H]1CCN2CC[C@@](N)(Cc3ccccc3)C(=O)N12)C(=O)c1nccs1 |  | 2 nM
4 | N=C(N)c1ccc(C[C@@H](NC(=O)CNS(=O)(=O)c2ccc3ccccc3c2)C(=O)N2CCCCC2)cc1 |  | 7 nM
5 | C[C@@H]1CCN(C(=O)[C@H](CCCNC(=N)N)NS(=O)(=O)c2cccc3c2NC[C@H](C)C3)[C@@H](C(=O)O)C1 [ARGATROBAN] |  | 1 nM
